What all share (format): cell-based, human
For assay [1], the system named is p16 and p21 mRNA in IMR90 ER:RAS cells. Nature of the assay: p16 and p21 mRNA expression by RT-qPCR, OIS. How it is done:
(§1) Total RNA was isolated using RNAeasy kit (Quiagen). cDNA was generated with reverse transcriptase iScript (Bio-Rad). RT-qPCR was performed using SYBR Select Master Mix (Applied Biosystems) in OneStepPlus detection system (Applied Biosystems). Oligos for amplification were: NOXA Fw-[…] and Rv-[…]; b-ACTIN Fw-[…] and Rv-[…]; IL1a Fw-[…] and Rv- […]; IL1b Fw-[…] and Rv- […]; IL8 Fw-[…] and Rv-[…]; p16 Fw-CGGTCGGAGGCCGATCCAG and Rv- […]; p21Fw-[…] and Rv- […].
In general terms: Real-time PCR tracks product formation cycle by cycle.

In assay [2] the test system is p16 and p21 mRNA in IMR90 cells at passage 27. In words: p16 and p21 mRNA expression by RT-qPCR, replicative senescence. On the procedure:
as §1

Assay [3] concerns IL1α, IL1β and IL8 mRNA in IMR90 ER:RAS cells. Nature of the assay: IL1α, IL1β and IL8 mRNA expression by RT-qPCR, OIS. On the procedure:
as §1

For assay [4], the system named is IL1α, IL1β and IL8 mRNA in IMR90 cells at passage 27. In words: IL1α, IL1β and IL8 mRNA expression by RT-qPCR, replicative senescence. The settings on record: Replicative senescence cells treated with Oleandrin; relative to Replicative senescence DMSO = 1; individual replicates (Sup Fig 9M). On the procedure:
as §1

The test system of another assay is control A549 cells. In words: Cell survival assay using crystal violet staining, TIS, control cells. The note with it: fraction of Control DMSO = 1, n 15.
The mark [5] stands for this setting: ER:RAS cells, ER:RAS DMSO = 1, single replicates (SUP FIG 9J).
Setting [6] is: Replicative senescence, Replicative senescence DMSO = 1, single replicates (SUP FIG 9K).
Where [7] appears, read: ER:RAS cells treated with Oleandrin, relative to ER:RAS DMSO = 1, individual replicates (Sup Fig 9L).

Results on 1 molecule are retold here after PMC10257182, “Discovery of senolytics using machine learning” (Nature Communications, 2023).

Where “and” joins values, the source holds several entries; their conditions need not be identical. Identical values can stand only once.

Turning to `CO[C@H]1C[C@H](O[C@H]2CC[C@@]3(C)[C@H](CC[C@@H]4[C@@H]3CC[C@]3(C)[C@@H](C5=CC(=O)OC5)[C@@H](OC(C)=O)C[C@]43O)C2)O[C@@H](C)[C@@H]1O` [Oleandrin, oleandrin], the “p16 mRNA expression” value is 0.68 and 0.69 and 0.24 and 0.46 in assay [1] (setting [5]); 0.71 and 0.46 and 0.42 in assay [2] (setting [6]). For the same molecule, the “p21 mRNA expression” value is 0.34 and 0.51 and 0.72 and 0.48 in assay [1] (setting [5]); 0.65 and 0.25 and 0.44 in assay [2] (setting [6]). The “mRNA expression of the senescence markers p16 and p21 in surviving cells, in words” value was “reduced” in assay [1] (OIS, 10 nM, three days) and “reduced” in assay [2] (replicative senescence, 10 nM, three days). Also, the “Il1a mRNA expression” value in assay [3] (setting [7]) was 0.753 and 0.593 and 0.059 and 0.346; in assay [4], 0.137 and 0.086. Also, the “Il1b mRNA expression” value in assay [3] (setting [7]) was 0.833 and 0.618 and 0.476 and 0.758 and 0.763 and 0.829; in assay [4] it was 0.212 and 0.341 and 0.688 and 0.490. Besides, the “Il8 mRNA expression” value in assay [3] (setting [7]) is 0.635 and 0.462 and 0.310 and 0.125 and 0.299; in assay [4], 0.310 and 0.732 and 0.719. For the same molecule, the “expression of proinflammatory cytokines IL1α, IL1β and IL8 mRNA in surviving cells, in words” value in assay [3] (OIS, 10 nM, three days) is “reduced expression”. The “Cell survival, mean (Test details, Mean 2)” value in the assay with control A549 cells stood at 1.13.
